Data on 16 molecules can be found in US4156017A, “Pesticides” (Schering Aktiengesellschaft, priority 1977, dated 1979).

Data set [1] relates to cabbage moth (Plutella maculipennis). The experiment in a line: feed damage on sprayed potted mustard seedlings bearing eggs of the cabbage moth (Plutella maculipennis). Type of data set: in vivo. Conditions: vs untreated plants, 7 days. The text has this: The compounds to be used according to the invention were used as aqueous solutions of the salts or as aqueous emulsions of the bases formulated as emulsion concentrates at the desired concentration. The same procedure was followed for the comparison agents trans-2-phenylcyclopropyl aminosulfate and 1-isonicotinyl-2-isopropyl hydrazine phosphate.
After the treatment the pots were set up in aerated glass cylinders for seven days.
The criterion for evaluation of the action was feed damage on the treated plants in comparison with the feed damage on untreated plants.

Data set [2] deals with cabbage moth eggs. Nature of the data set: prevention of hatching of cabbage moth eggs (immersion, evaluation four days after treatment). Type of data set: in vivo. Conditions: Mamestra brassicae, 96 h; for inhibition at 1 % / inhibition at 0.1 %: read-out: prevention of hatching. As to the method: The compounds to be used according to the invention were used as aqueous solutions of the salts or as aqueous emulsions of the bases formulated as emulsion concentrates at the desired concentration. The same procedure was followed with the comparison agents trans-2-phenylcyclopropyl aminosulfate and 1-isonicotinyl-2-isopropyl hydrazine phosphate; in the case of isonicotinic acid-2-[2-(benzylcarbamoyl)-ethyl]-hydrazide, the compound was dissolved in acetone and diluted to the desired concentration with water.
The criterion for the evaluation of action was the percentual prevention of hatching in comparison with untreated eggs.

The test system of data set [3] is Egyptian cotton moth eggs. The experiment in a line: prevention of hatching of Egyptian cotton moth eggs (immersion, evaluation four days after treatment). The format is in vivo, Spodoptera littoratis (Egyptian cotton moth). To be noted: 96 h. The protocol:
The compounds to be used according to the invention were aqueous solutions of the salts or aqueous emulsions of the baes formulated as emulsion concentrates at the desired concentration. The same procedure was followed with the comparison agents trans-2-phenylcyclopropyl aminosulfate and 1-isonicotinyl-2-isopropyl hydrazine phosphate; in the case of isonicotinic acid-2-[2-(benzylcarbamoyl)-ethyl]hydrazide, the compound was dissolved in acetone and diluted with water to the desired concentration.
The criterion for evaluation of the action was the percentual prevention of batching in comparison with untreated eggs.

The subject of data set [4] is monoamino-oxidase. Conditions: generally known; cited from earlier work.
Data set [5] can be described thus: acute oral toxicity, mouse. To be noted: in vivo, mouse p.o.
[6] abbreviates: read-out: prevention of batching.
[7] abbreviates: substance concentration 0.1 (head "(5)"), vs untreated eggs, 4 days, read-out: prevention of hatching.
[8] abbreviates: substance concentration 0.04 (head "(5)"), vs untreated eggs, 4 days, read-out: prevention of hatching.
Where [9] appears, read: substance concentration 0.1%, vs untreated eggs, 4 days.
[10] abbreviates: substance concentration 1.0%, vs untreated eggs, 4 days.
Setting [11] is: substance concentration 1.0 (head "(5)"), vs untreated eggs, 4 days, read-out: prevention of hatching.

Structures are written as SMILES. Where two headings read alike, the source gives them in different places.

Take `N[C@@H]1C[C@H]1c1ccccc1.O=S(=O)(O)O` (relative stereo) [trans-2-Phenylcyclopropyl aminosulfate, trans-2-phenylcyclopropylamine sulfate, reference compound]: the feed damage in data set [1] (substance concentration 0.1%) came to 100%. Moreover, the inhibition at 1 % in data set [2] and in data set [3] (setting [6]) was 0% each time. The inhibition of monoamino-oxidase result in data set [4] is given as “inhibitors of monoamino-oxidase”.

As for `C#CCN(C)Cc1cccc(Cl)c1` [Compound 5, N-(3-chlorobenzyl)-N-methyl-2-propinylamine], the inhibition at 0.1 % in data set [3] (setting [7]) was determined as 100%.

As for `C#CCN(C)Cc1cccc(OC)c1` [Compound 13, 3-Methoxybenzyl-methyl-2-propinyl-ammonium chloride], the inhibition at 0.04 % in data set [3] (setting [8]) amounted to 70%.

Take `C#CCN(C)Cc1ccc(Cl)c(Cl)c1` [Compound 6, N-(3,4-dichlorobenzyl)-N-methyl-2-propinylamine]: the inhibition at 0.04 % in data set [3] (setting [8]) turned out to be 100%.

`C#CCN(C)Cc1ccc(Cl)cc1Cl` [Compound 7, N-(2,4-dichlorobenzyl)-N-methyl-2-propinylamine]: the inhibition at 0.1 % in data set [2] (setting [9]) came out at 100%. For the same molecule, the inhibition at 0.04 % in data set [3] (setting [8]) came to 100%.

`C#CCN(C)Cc1ccccc1` [Compound 9, Benzyl-methyl-2-propinyl-ammonium-chloride]: the inhibition at 0.1 % in data set [3] (setting [6]) turned out to be 100%.

Usually LD50 stands for the dose expected to kill half of the subjects tested. Low values mean greater toxicity, high ones lower toxicity. For `C#CCN(C)Cc1ccccc1` [Compound 3, N-Benzyl-N-methyl-2-propinylamine], the feed damage in data set [1] (substance concentration 0.05%) is reported as 0%. Also, the inhibition at 0.1 % in data set [2] came out at 100%. Moreover, the inhibition at 0.04 % in data set [3] (setting [6]) stood at 100%. The inhibition of monoamino-oxidase result in data set [4] is given as “inhibitors of monoamino-oxidase”. The LD50 in data set [5] was 700 mg/kg.

In data set [1] (substance concentration 0.05%), `C#CCN(C)Cc1ccc(Cl)c(Cl)c1` [Compound 14, 3,4-Dichlorobenzyl-methyl-2-propinyl-ammonium chloride] displayed a feed damage of 0%. Also, the inhibition at 0.08 % in data set [2] (substance concentration 0.08%, vs untreated eggs, 4 days) came to 100%.

Consider `C#CCN(C)Cc1ccccc1Cl` [Compound 10, 2-Chlorobenzyl-methyl-2-propinyl-ammonium chloride], for which, in data set [2] (setting [9]), the inhibition at 0.1 % was determined as 100%. The inhibition at 0.04 % in data set [3] (setting [8]) was determined as 80%.

For the molecule `C#CCN(C)Cc1ccc(Cl)cc1` [Compound 1, N-(4-chlorobenzyl)-N-methyl-2-propinylamine], in data set [1] (substance concentration 0.05%), the feed damage worked out at 0%. The inhibition at 0.06 % in data set [2] (substance concentration 0.06%, vs untreated eggs, 4 days) turned out to be 100%. Further, the inhibition at 0.02 % in data set [3] (substance concentration 0.02 (head "(5)"), vs untreated eggs, 4 days) is 100%.

Turning to `CC(C)NNC(=O)c1ccncc1` [1-isonicotinyl-2-isopropylhydrazine phosphate, reference compound], the feed damage in data set [1] (substance concentration 0.1%) is reported as 100%. Also, the inhibition at 1 % in data set [2] (setting [10]) and in data set [3] (setting [11]) was 0% in each case. Moreover, in data set [4], the inhibition of monoamino-oxidase entry is “inhibitors of monoamino-oxidase”.

In the case of `O=C(CCNNC(=O)c1ccncc1)NCc1ccccc1` [Isonicotinic acid-2-[2-(benzylcarbamoyl)-ethyl]-hydrazide, reference compound], the inhibition at 1 % in data set [2] (setting [10]) and in data set [3] (setting [11]) was 0% throughout. Besides, in data set [4], the inhibition of monoamino-oxidase entry is reported as “inhibitors of monoamino-oxidase”.

For `C#CCN(C)Cc1ccc(Cl)cc1` [Compound 2, 4-Chlorobenzyl-methyl-2-propinyl ammonium chloride], in data set [3] (setting [7]), the inhibition at 0.1 % amounted to 100%.

In the case of `C#CCN(C)Cc1ccc(Cl)cc1Cl` [Compound 12, 2,4-Dichlorobenzyl-methyl-2-propinyl-ammonium chloride], in data set [3] (setting [7]), the inhibition at 0.1 % worked out at 100%.

Take `C#CCN(C)Cc1cccc(OC)c1` [Compound 8, N-(3-methoxybenzyl)-N-methyl-2-propinylamine]: the inhibition at 0.1 % in data set [3] (setting [7]) is 100%.

As for `C#CCN(C)Cc1ccccc1Cl` [Compound 4, N-(2-chlorobenzyl)-N-methyl-2-propinylamine], the inhibition at 0.1 % in data set [3] (setting [7]) was 100%. Moreover, in data set [5], the LD50 was 305 mg/kg.
